The text below walks through data of patent publication US20260262644A1, “Antifungal compositions comprising natamycin” (Patent Nata B.V., priority 2023, published 2026).

The test system of data set [1] is Pythium ultimum. Description: Mycelium growth on PDA petri dishes containing natamycin and/or solvent; synergy by Colby equation. Type of data set: cell-based. The source says:
The Colby equation (Colby, 1967. Weeds 15: 20-22) calculates the expected antifungal activity (E in %) of a combination comprising more than one active ingredients:
wherein X and Y are the observed antifungal activities (in %) of the individual active ingredients x and y, respectively. If the observed antifungal activity (O in %) of the combination exceeds the expected antifungal activity (E in %) of the combination and the synergy factor O/E is thus >1.0, the combined application of the active ingredients and solvent leads to a synergistic antifungal effect.
Agar medium was prepared by mixing in a 100 ml Duran bottle 3.9 g of potato dextrose agar (PDA; Carl-Roth GmbH+Co. KG, Karlsruhe, Germany) with 100 ml deionized water and autoclaving the Duran bottle at 120° C. for 15 minutes. After autoclaving, the solution was cooled by putting it in a 50° C. oven for about two hours. Afterward the semi-liquid PDA solution was carefully mixed with natamycin and/or solvent dosages as specified in Table 2 (left column). The medium in the Duran bottle was divided over 5 petri dishes (90×15 mm), 20 ml per petri dish by using 25 ml serological pipets (ROTILABO®; Carl-Roth). Each natamycin and/or solvent treatment was performed in five fold.
Hereafter, a circular agar mycelium plug (circular segment with a height on 5 mm of agar, fully grown with fresh Pythium ultimum mycelium, which was cut out of a petri dish with the broad side of a yellow pipette tip (Greiner Bio-One, 200 μl tips) with a diameter of 5 mm, was placed in the center of the petri dish. Hereafter the petri dishes were placed in the incubator at 22° C. Measurement of the fungal growth was done using caliper.
The solvent levels and the period after which the assessments were made are presented as specified for the different solvents are presented in Table 2 below. Synergistic calculation was done using the Colby equation. Experiment was performed in 5-fold.

Data set [2] concerns Botrytis cinerea. Described as above. The note with it: 1 day after plug. The format is cell-based.
Data set [3] concerns Pythium ultimum. Description: Emergence of coated spinach seeds in artificially infected soil. Type of data set: in vivo. The note with it: natamycin 0.25, BL 0, thymol 0 mg/g seeds, 6 days after sowing.
Procedure: Spinach seeds were placed in soil that was artificially infected (see below for method).
Soil infection was obtained via incubation of soil with infected, killed rye seeds. […] The dead rye seeds were infected with Pythium ultimum PDA plugs (circular segments of PDA, covered with freshly fully grown Pythium ultimum mycelium, which were cut out of a petri dish with the broad side of a yellow pipette tip (Greiner Bio-One, 200 μl tips) with a diameter of 5 mm). Three P. ultimum agar plugs were placed in the 500 ml jar containing the 50 g autoclaved (dead) rye seeds, which was further incubated at 22° C. for one week (16 h day light, 8 hours dark). To prepare the infected soil, potting soil (Tuinaarde, ophoog grond, purchased from Welkoop) were placed in round transparent plastic containers (9 cm in diameter, 4.5 cm high, volume 250 ml). Ten infected rye seeds, that acted as a carrier for P. ultimum, were placed in each round plastic container. To treat the spinach seeds, 77.8 μl of treatment mix (see below) was added to 1 g of seeds in a plastic container. The seeds were shaken and let to dry. Once dried, 20 treated spinach seeds were added to the inoculated soil. The rye seeds and spinach seeds were mixed into the soil, so that both seed types were homogenously distributed within the soil as well as covered by the soil. […] Emergence of the seedlings was assessed. […]
Data set [4] deals with Pythium ultimum. Description: Emergence of coated radish seeds in artificially infected soil. Type of data set: in vivo. The note with it: natamycin 0.05, thymol 0 mg/g seeds, 2 days after sowing.
Procedure: Soil infection was obtained via incubation of soil with infected, killed rye seeds. For this, 50 g of rye seeds and 50 ml water were put into a 500 ml glass jar, which was autoclaved twice (121° C., 15 min, 15 psi). The dead rye seeds were infected with Pythium ultimum PDA plugs (circular segments of PDA, covered with freshly fully grown Pythium ultimum mycelium, which were cut out of a petri dish with the broad side of a yellow pipette tip (Greiner Bio-One, 200 μl tips) with a diameter of 5 mm). Three P. ultimum agar plugs were placed in the 500 ml jar containing the 50 g autoclaved (dead) rye seeds, which was further incubated at 22° C. for one week (16 h day light, 8 hours dark). To prepare the infected soil, potting soil (Tuinaarde, ophoog grond, purchased from Welkoop) were placed in round transparent plastic containers (9 cm in diameter, 4.5 cm high, volume 250 ml). Ten infected rye seeds, that acted as a carrier for P. ultimum, were placed in each round plastic container. […] The seeds were shaken and let to dry. […] The containers were closed with transparent lids and placed into a growth cabinet with the following growth conditions: 16 h day light, 22° C. constant temperature, 70% humidity. Emergence of the seedlings was assessed. For each treatment 3 pots were used, resulting in 3 replicates. […]
Data set [5] can be described thus: Solubility of natamycin in solvents (HPLC). The format is physicochemical. How it is done: The solubility of natamycin was measured in water and in the water-miscible solvent DMSO. For this, 240.6 mg and 94.3 mg of natamycin at a purity of 95% (DSM) were diluted in 50 ml of water and DMSO, respectively. The mixtures were sonicated for 30 minutes and analysed by HPLC. The HPLC system was an Agilent 1100 system. The column used was a ACE C18 RP column, 250×4.6 mm with pore size 5 μm. The mobile phase consisted of 1 g ammonium chloride and 3 g ammonium acetate dissolved in 760 mL water, and mixed with 240 mL acetonitrile and 5 mL tetrahydrofuran (THF). The speed of the flow was 3.0 ml/min and the column temperature was 25° C. The injection volume was 20 μL. Natamycin was detected with a spectrophotometer at a wavelength of 303 nm. All samples were centrifugated and filtered through 0.45 μm HPLC filters before analysis. The amount of dissolved natamycin measured in water and DMSO were 32 mg/kg and 2571 mg/kg, respectively (see Table 12).
For the water-miscible solvent Purasolv® EL, and the water-immiscible solvents BL and EHL, natamycin was added until it no longer dissolved. The mixtures were then filtered and analysed by HPLC. The amount of dissolved natamycin were 832, 211, and 271 mg/kg for EL, BL, and EHL, respectively (Table 12).

Setting [6] is: natamycin-solvent 0-12.5 ppm, 1 day after plug.
[7] abbreviates: natamycin-solvent 0-25 ppm, 1 day after plug.
[8] abbreviates: natamycin-solvent 0-250 ppm, 1 day after plug.
Setting [9] is: natamycin-solvent 0-125 ppm, 2 days after plug, Tables 4-5.
Where [10] appears, read: natamycin-solvent 0-250 ppm, 2 days after plug, Tables 4-5.
Setting [11] is: natamycin-solvent 0-500 ppm, 2 days after plug, Tables 4-5.
Where [12] appears, read: natamycin-solvent 0-12.5 ppm, 2 days after plug.
Where [13] appears, read: natamycin-solvent 0-25 ppm, 2 days after plug.
Setting [14] is: natamycin-solvent 0-250 ppm, 2 days after plug.

As for `CC(O)C(=O)N(C)C` (stereo not shown) [Agnique ® AMD 3L, dimethyllactamide], the figures for the Avg infected area in data set [1] (setting [6]), in data set [1] (setting [7]) and in data set [1] (setting [8]) were 1220.5 mm^2, 1116.3 mm^2 and 1278.7 mm^2, respectively. Further, the figures for the Observed % in data set [1] (setting [6]), in data set [1] (setting [7]) and in data set [1] (setting [8]) were 10.31%, 17.97% and 6.04%, respectively.
Take `CC(O)C(=O)N(C)C` (stereo not shown) [DMAC, dimethyllactamide]: in data set [1] (setting [6]), the Avg infected area turned out to be 1251.6 mm^2 and the Observed % is recorded as 6.73%. In data set [1] (setting [8]), the Avg infected area turned out to be 1316.1 mm^2 and the Observed % turned out to be 1.93%.
As for `C[S+](C)[O-]` [DMSO, Dimethyl Sulfoxide], the Avg infected area in data set [1] (setting [9]) was determined as 5247.969 mm2; in data set [1] (setting [10]), 5238.583 mm2; in data set [1] (setting [11]) it was 5129.162 mm2; in data set [1] (natamycin-solvent 0-1000 ppm, 2 days after plug, Tables 4-5) it was 4475.89 mm2.
Turning to `CCCCC(CC)COC(=O)[C@H](C)O` (stereo partly drawn) [EHL, 2-ethylhexyl L-lactate], the Avg infected area worked out at 290.1899 mm2 in data set [1] (natamycin-solvent 0-125 ppm, 1 day after plug, Tables 6-7); 34.78 mm2 in data set [1] (natamycin-solvent 0-250 ppm, 1 day after plug, Tables 6-7); 1740.142 mm2 in data set [2] (natamycin-solvent 0-0.5 ppm). Further, the Observed % in data set [2] (natamycin-solvent 0-0.5 ppm) came out at 11.74%.
As for `CCOC(=O)[C@H](C)O` [EL, ethyl L-lactate], the Avg infected area in data set [1] (natamycin-solvent 0-12.5 ppm, 1 day after plug, Tables 6-7) is 625.9774 mm2; in data set [1] (natamycin-solvent 0-25 ppm, 1 day after plug, Tables 6-7), 574.2358 mm2; in data set [1] (natamycin-solvent 0-50 ppm, 1 day after plug, Tables 6-7), 619.378 mm2; in data set [2] (natamycin-solvent 0-0.5 ppm) it was 1390.376 mm2. Moreover, the Observed % in data set [2] (natamycin-solvent 0-0.5 ppm) is 29.48%.
For `CCO` [EtOH, Ethanol], the Avg infected area in data set [1] (setting [9]) came to 5488.804 mm2; in data set [1] (setting [10]), 5286.064 mm2; in data set [1] (setting [11]), 4366.453 mm2; in data set [2] (natamycin-solvent 0-0.5 ppm), 1602.867 mm2. The Observed % in data set [2] (natamycin-solvent 0-0.5 ppm) amounted to 18.70%.
In the case of `C=CCCCCCCCC(=O)N(C)C` [Hallcomid ® 1025], the Avg infected area stood at 3666.2 mm^2 in data set [1] (setting [12]), 2118.6 mm^2 in data set [1] (setting [13]) and 0 mm^2 in data set [1] (setting [14]). For the same compound, the values for the Observed % in data set [1] (setting [12]), in data set [1] (setting [13]) and in data set [1] (setting [14]) were 30.89%, 60.06% and 100.00%, respectively.
Turning to `C[C@@H]1C/C=C/C=C/C=C/C=C/[C@H](O[C@@H]2O[C@H](C)[C@@H](O)[C@H](N)[C@@H]2O)C[C@@H]2O[C@](O)(C[C@@H](O)C[C@H]3O[C@@H]3/C=C/C(=O)O1)C[C@H](O)[C@H]2C(=O)O` [Natamycin], the Avg infected area in data set [1] (natamycin-solvent 25-0 ppm, 2 days after plug, Tables 4-5) amounted to 4397.811 mm2; in data set [1] (natamycin-solvent 50-0 ppm, 1 day after plug, Tables 6-7), 563.7967 mm2; in data set [1] (natamycin-solvent 50-0 ppm, 2 days after plug, Tables 4-5), 4891.484 mm2; in data set [1] (natamycin-solvent 100-0 ppm, 2 days after plug, Tables 4-5) it was 4435.301 mm2; in data set [1] (natamycin-solvent 200-0 ppm, 2 days after plug, Tables 4-5), 5059.918 mm2; in data set [2] (natamycin-solvent 0.5-0 ppm) it was 1183.171 mm2. The Observed % in data set [2] (natamycin-solvent 0.5-0 ppm) came to 39.99%; in data set [3], 37.50%; in data set [4], 13.64%. The values for the Avg germination in data set [3] and in data set [4] were 18.3 and 41.7, respectively. Besides, the “Natamycin concentration (amount of dissolved natamycin)” value in data set [5] (in 2-ethylhexyl L-lactate (Purasolv EHL)) amounted to 271 mg/kg; in data set [5] (in DMSO), 2571 mg/kg; in data set [5] (in ethyl L-lactate (Purasolv EL)), 832 mg/kg; in data set [5] (in n-butyl L-lactate (Purasolv BL)), 211 mg/kg; in data set [5] (in water), 32 mg/kg.
Take Xylene: in data set [1] (setting [13]), the Avg infected area was found to be 5371.2 mm^2 and the Observed % amounted to 1.35%.
